Values quoted from earlier work as cited in US20120189710A1, “ANTIBACTERIAL COMPOSITIONS” (priority 2009, published 2012).

water solubility: water soluble
Structure (SMILES): C=CCSC[C@H](N)C(=O)O [SAC, S-allyl cysteine]
